Where two headings read alike, the source gives them in different places.
Legend:
PKN1 [1] = biological target: T1, PKN1 (Homo sapiens, UniProt Q16512); experiment: PKN1 kinase inhibition, off-chip mobility shift assay; format: biochemical; design: Full-length, FLAG-tagged human PKN1, PKN2 and PKN3 were expressed in mammalian HEK-293 cells; host or cells: HEK-293 (transient transfection, pcDNA4/TO)
Protocol: (§4) The activity of all PKN proteins was monitored through the use of a highly sensitive off-chip mobility shift assay utilizing a LabChip EZ Reader II instrument (Caliper Life Sciences/PerkinElmer); this assay format has been described elsewhere [31]. […] Peptide concentration was adjusted according to purity and peptide content. For inhibition studies, the inhibitor was pre-incubated with enzyme for 15 min at room temperature. All reactions were initiated with ATP and conducted at room temperature (~22°C).
(§5) All data were globally fit using non-linear regression and GraphPad Prism software. Non-linear data were converted to double-reciprocal Lineweaver–Burk plots for visual and presentation purposes only. Kinetic data were analysed in duplicate, and each plot is representative of at least two independent experiments.
(§6) For enzyme inhibition studies, data were fit to eqns (2)–(4) for competitive, non-competitive and uncompetitive inhibition, respectively: (2) v=Vmax[S]/[S]+KM1+[I]/Ki (3) v=Vmax[S]/([S]+KM)1+[I]/Ki (4) v=Vmax[S]/[S]1+[I]/αKi+KM
(§7) For eqns (1)–(4), v is measured velocity, Vmax is maximum velocity, [ATP], [Pep] and [S] are concentrations of ATP, peptide and varied substrate, respectively; Kia is the equilibrium dissociation constant of ATP, KM,ATP, KM,Pep and KM are the Michaelis–Menten constants for ATP, peptide and the varied substrate, respectively. [I] is the inhibitor concentration, α describes the preference for inhibitor binding to either free or substrate bound enzyme and Ki is the inhibitor equilibrium dissociation constant.

PKN2 [2] = biological target: T2, PKN2 (Homo sapiens, UniProt Q16513); experiment: PKN2 kinase inhibition, off-chip mobility shift assay; format: biochemical; design: Full-length, FLAG-tagged human PKN1, PKN2 and PKN3 were expressed in mammalian HEK-293 cells; host or cells: HEK-293 (transient transfection, pcDNA4/TO)
Protocol: as §4, §5, §6, §7

PKN3 [3] = biological target: T3, PKN3 (Homo sapiens, UniProt Q6P5Z2); experiment: PKN3 kinase inhibition, off-chip mobility shift assay; format: biochemical; design: Full-length, FLAG-tagged human PKN1, PKN2 and PKN3 were expressed in mammalian HEK-293 cells
Protocol: as §4, §5, §6, §7

PKN1 [4] = biological target: T1, PKN1; experiment: Lipid activation of PKN1 kinase activity, off-chip mobility shift assay; format: biochemical; design: Full-length, FLAG-tagged human PKN1, PKN2 and PKN3 were expressed in mammalian HEK-293 cells; host or cells: HEK-293 (transient transfection, pcDNA4/TO); conditions: saturating ATP (500 μM), 3 μM peptide, 1 nM PKN1; for PKN1 Maximal fold activation: increase in initial rate; for EC50: lipid activator
Protocol: (§1) Lipids were supplied as a solid powders, ethanol, or chloroform solutions. All solids were dissolved directly into assay buffer and briefly water bath sonicated at room temperature for 10 min. Lipids supplied as solutions in organic solvent were dried under a gentle stream of nitrogen, resuspended in assay buffer, and similarly sonicated. All lipids were prepared fresh daily.
(§2) The activity of all PKN proteins was monitored through the use of a highly sensitive off-chip mobility shift assay utilizing a LabChip EZ Reader II instrument (Caliper Life Sciences/PerkinElmer); this assay format has been described elsewhere. Kinase activity was monitored through the phosphorylation of a 5-FAM-labelled PKN substrate peptide found through Pfizer in-house optimization efforts and derived from the amino acid sequence of GSK3α (accession no. AAH51865.1) with the following sequence: 5-FAM-C6-[…]-NH2. The likely site of phosphorylation is underlined, as determined through comparison with the published phosphorylation consensus sequence for PKN1 and PKN3 substrates. Reaction buffer contained 25 mM Tris, pH 8.0, 5 mM MgCl2, 0.002% CHAPS and 2 mM DTT, with indicated protein, ATP and peptide concentrations. Peptide concentration was adjusted according to purity and peptide content. For inhibition studies, the inhibitor was pre-incubated with enzyme for 15 min at room temperature. All reactions were initiated with ATP and conducted at room temperature (~22°C). Reactions were terminated by the addition of EDTA, pH 8.0, at a final concentration of 25 mM. All reaction rates were determined to be linear with respect to time and enzyme concentration where no more than 20% of peptide substrate had been converted to product. Aliquots of each reaction were transferred in duplicate to a 384-well plate and analysed on a LabChip EZ Reader II with separation buffer containing 100 mM Hepes, pH 7.5, 0.015% Brij-35, 1 mM EDTA, 0.1% CR3 coating reagent, 1×CR8 coating reagent and 5% DMSO, with the following settings: downstream voltage: −500 V, upstream voltage: −2300 V, base pressure: −0.5 psi; screen pressure: −1.7 psi. […]
(§3) Figure 2 PKN responses to lipid activators in biochemical assays Lipids were prepared as described under the Experimental section, and kinase activity of PKN isoforms was measured using off-chip mobility shift assay described in the Methods section. Each lipid was titrated in the presence of 1 nM, 5 nM and 3 nM PKN1–3, respectively, 3 μM peptide and 500 μM ATP. vi is the initial rate at each concentration of lipid activator and vo is the initial rate in the absence of lipid.

PKN2 [5] = biological target: T2, PKN2; experiment: Lipid activation of PKN2 kinase activity, off-chip mobility shift assay; format: biochemical; design: Full-length, FLAG-tagged human PKN1, PKN2 and PKN3 were expressed in mammalian HEK-293 cells; host or cells: HEK-293 (transient transfection, pcDNA4/TO); conditions: for PKN2 Maximal fold activation: increase in initial rate; for effect on PKN2 kinase activity: in words, saturating ATP
Protocol: as §1, §2, §3

PKN3 [6] = biological target: T3, PKN3; experiment: Lipid activation of PKN3 kinase activity, off-chip mobility shift assay; format: biochemical; design: Full-length, FLAG-tagged human PKN1, PKN2 and PKN3 were expressed in mammalian HEK-293 cells; conditions: increase in initial rate; saturating ATP (500 μM), 3 μM peptide, 3 nM PKN3
Protocol: as §1
The activity of all PKN proteins was monitored through the use of a highly sensitive off-chip mobility shift assay utilizing a LabChip EZ Reader II instrument (Caliper Life Sciences/PerkinElmer); this assay format has been described elsewhere. Kinase activity was monitored through the phosphorylation of a 5-FAM-labelled PKN substrate peptide found through Pfizer in-house optimization efforts and derived from the amino acid sequence of GSK3α (accession no. AAH51865.1) with the following sequence: 5-FAM-C6-[…]-NH2. The likely site of phosphorylation is underlined, as determined through comparison with the published phosphorylation consensus sequence for PKN1 and PKN3 substrates. Reaction buffer contained 25 mM Tris, pH 8.0, 5 mM MgCl2, 0.002% CHAPS and 2 mM DTT, with indicated protein, ATP and peptide concentrations. Peptide concentration was adjusted according to purity and peptide content. For inhibition studies, the inhibitor was pre-incubated with enzyme for 15 min at room temperature. All reactions were initiated with ATP and conducted at room temperature (~22°C). Reactions were terminated by the addition of EDTA, pH 8.0, at a final concentration of 25 mM. All reaction rates were determined to be linear with respect to time and enzyme concentration where no more than 20% of peptide substrate had been converted to product. Aliquots of each reaction were transferred in duplicate to a 384-well plate and analysed on a LabChip EZ Reader II with separation buffer containing 100 mM Hepes, pH 7.5, 0.015% Brij-35, 1 mM EDTA, 0.1% CR3 coating reagent, 1×CR8 coating reagent and 5% DMSO, with the following settings: downstream voltage: −500 V, upstream voltage: −2300 V, base pressure: −0.5 psi; screen pressure: −1.7 psi.
Ki values for representative inhibitors were determined by fitting initial reaction velocities to eqn (2) for competitive inhibition using the method of non-linear least-squares using GraphPad Prism. Turnover number (kcat) was calculated by normalizing Vmax values for enzyme concentration.
as §3

PKN1, PKN2 and PKN3 = experiment: PKN isoform selectivity from Ki values (Ki ratio); format: biochemical, human; conditions: for Isoform selectivity: isoform(s) preferred, defined as ~10-fold or greater Ki ratio
Excerpt: The activity of all PKN proteins was monitored through the use of a highly sensitive off-chip mobility shift assay utilizing a LabChip EZ Reader II instrument (Caliper Life Sciences/PerkinElmer); this assay format has been described elsewhere [31]. […] The likely site of phosphorylation is underlined, as determined through comparison with the published phosphorylation consensus sequence for PKN1 and PKN3 substrates [27]. […] Peptide concentration was adjusted according to purity and peptide content. For inhibition studies, the inhibitor was pre-incubated with enzyme for 15 min at room temperature. All reactions were initiated with ATP and conducted at room temperature (~22°C).

[7] = absence of lipids, fit to competitive inhibition, ±S.D., n=2, read-out: PKN1, Ki
[8] = absence of lipids, fit to competitive inhibition, ±S.D., n=2, read-out: PKN2, Ki
[9] = absence of lipids, fit to competitive inhibition, ±S.D., n=2, read-out: PKN3, Ki
[10] = saturating ATP (500 μM), 3 μM peptide, 5 nM PKN2

T2 sequence (Q16513 whole entry): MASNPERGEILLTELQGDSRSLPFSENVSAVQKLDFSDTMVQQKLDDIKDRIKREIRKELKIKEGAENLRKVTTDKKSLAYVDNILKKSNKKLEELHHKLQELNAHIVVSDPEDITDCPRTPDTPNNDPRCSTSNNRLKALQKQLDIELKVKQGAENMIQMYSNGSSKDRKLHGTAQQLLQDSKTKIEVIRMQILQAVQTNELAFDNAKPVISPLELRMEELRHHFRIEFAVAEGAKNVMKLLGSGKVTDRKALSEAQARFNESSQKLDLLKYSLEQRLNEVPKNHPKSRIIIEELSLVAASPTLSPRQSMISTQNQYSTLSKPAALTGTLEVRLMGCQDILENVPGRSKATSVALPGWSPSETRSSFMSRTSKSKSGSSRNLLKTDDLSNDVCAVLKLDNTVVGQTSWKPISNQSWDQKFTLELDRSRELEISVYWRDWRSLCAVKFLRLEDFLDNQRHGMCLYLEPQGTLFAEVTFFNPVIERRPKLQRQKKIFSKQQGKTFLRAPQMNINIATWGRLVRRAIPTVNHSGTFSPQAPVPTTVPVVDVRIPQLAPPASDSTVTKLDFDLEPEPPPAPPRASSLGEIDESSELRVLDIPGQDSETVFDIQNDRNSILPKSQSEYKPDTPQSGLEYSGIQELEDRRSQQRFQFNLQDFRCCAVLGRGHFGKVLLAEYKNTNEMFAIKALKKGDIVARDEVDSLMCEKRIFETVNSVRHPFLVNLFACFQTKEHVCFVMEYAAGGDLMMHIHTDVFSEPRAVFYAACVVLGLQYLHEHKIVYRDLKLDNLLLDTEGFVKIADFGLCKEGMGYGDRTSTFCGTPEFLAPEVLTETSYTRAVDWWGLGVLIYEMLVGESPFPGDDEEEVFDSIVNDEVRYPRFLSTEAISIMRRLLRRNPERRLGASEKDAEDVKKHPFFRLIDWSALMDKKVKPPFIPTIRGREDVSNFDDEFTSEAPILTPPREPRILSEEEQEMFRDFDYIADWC
T3 sequence (Q6P5Z2 whole entry): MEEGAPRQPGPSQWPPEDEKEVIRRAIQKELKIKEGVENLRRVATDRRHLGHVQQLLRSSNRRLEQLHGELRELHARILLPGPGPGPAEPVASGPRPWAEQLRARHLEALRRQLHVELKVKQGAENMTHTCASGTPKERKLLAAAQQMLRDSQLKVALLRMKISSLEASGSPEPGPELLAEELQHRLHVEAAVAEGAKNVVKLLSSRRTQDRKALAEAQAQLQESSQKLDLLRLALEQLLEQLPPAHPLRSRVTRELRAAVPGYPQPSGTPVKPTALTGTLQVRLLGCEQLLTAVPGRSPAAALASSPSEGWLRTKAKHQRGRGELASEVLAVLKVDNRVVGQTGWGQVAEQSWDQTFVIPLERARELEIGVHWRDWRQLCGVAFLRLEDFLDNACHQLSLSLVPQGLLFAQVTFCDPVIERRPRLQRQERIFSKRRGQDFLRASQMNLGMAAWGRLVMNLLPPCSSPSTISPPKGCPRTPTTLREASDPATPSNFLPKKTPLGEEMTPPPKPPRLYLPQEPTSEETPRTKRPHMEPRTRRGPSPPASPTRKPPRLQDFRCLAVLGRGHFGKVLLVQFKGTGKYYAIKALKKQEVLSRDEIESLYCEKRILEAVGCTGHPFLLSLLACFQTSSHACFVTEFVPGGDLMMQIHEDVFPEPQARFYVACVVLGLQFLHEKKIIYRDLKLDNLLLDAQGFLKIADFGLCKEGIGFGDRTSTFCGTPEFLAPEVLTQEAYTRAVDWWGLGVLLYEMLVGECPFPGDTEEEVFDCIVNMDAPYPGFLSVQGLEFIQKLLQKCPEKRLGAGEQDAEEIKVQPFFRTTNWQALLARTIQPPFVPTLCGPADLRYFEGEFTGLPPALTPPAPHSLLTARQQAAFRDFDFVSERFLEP
T1 sequence (Q16512 whole entry): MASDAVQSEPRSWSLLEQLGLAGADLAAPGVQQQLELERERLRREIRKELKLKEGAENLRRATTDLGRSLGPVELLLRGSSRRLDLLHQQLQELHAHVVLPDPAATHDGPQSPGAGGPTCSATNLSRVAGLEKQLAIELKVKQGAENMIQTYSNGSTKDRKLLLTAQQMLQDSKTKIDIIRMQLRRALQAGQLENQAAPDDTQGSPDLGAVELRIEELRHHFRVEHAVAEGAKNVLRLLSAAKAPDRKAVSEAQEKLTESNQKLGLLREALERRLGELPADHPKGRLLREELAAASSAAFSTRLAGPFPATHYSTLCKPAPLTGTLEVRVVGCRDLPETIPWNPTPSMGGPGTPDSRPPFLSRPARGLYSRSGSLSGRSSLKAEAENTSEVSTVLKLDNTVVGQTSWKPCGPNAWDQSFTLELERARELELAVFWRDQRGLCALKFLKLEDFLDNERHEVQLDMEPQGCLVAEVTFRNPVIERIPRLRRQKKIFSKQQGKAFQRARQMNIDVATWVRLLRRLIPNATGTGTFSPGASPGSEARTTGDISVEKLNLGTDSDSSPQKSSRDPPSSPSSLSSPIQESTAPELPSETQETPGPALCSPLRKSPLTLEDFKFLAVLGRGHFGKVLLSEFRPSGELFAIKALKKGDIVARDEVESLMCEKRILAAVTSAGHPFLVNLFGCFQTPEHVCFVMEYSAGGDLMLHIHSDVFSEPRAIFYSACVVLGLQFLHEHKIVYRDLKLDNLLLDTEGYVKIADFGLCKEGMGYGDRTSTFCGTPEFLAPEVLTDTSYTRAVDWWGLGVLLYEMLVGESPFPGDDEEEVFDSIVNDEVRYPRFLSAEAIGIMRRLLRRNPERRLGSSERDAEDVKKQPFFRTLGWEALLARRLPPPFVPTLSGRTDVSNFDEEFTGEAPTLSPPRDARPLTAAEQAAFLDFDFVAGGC

| Molecule | Ki (PKN1 [1]; [7]) | Ki (PKN2 [2]; [8]) | Ki (PKN3 [3]; [9]) | PKN1 Maximal fold activation (PKN1 [4]) | PKN2 Maximal fold activation (PKN2 [5]; [10]) | PKN3 Maximal fold activation (PKN3 [6]) | other results |
| --- | --- | --- | --- | --- | --- | --- | --- |
| Oc1ccc(-c2nc(-c3ccncc3)c(-c3ccc(F)cc3)[nH]2)cc1 [Compound 9, SB-202190] | > 5 µM | 2.3 ± 0.4 µM | 0.004 ± 0.0003 µM | – | – | – | – |
| H-PRLQRQERIFSKRRG-OH [PKN3-PRL] | – | – | – | – | – | – | Ki (PKN3 [3]; competitive with respect to peptide substrate, 250 μM ATP, 0.9–30 μM peptide, 4 nM enzyme, 5 μM arachidonic acid, read-out: PKN3 Ki with respect to peptide substrate): 5.4 µM; PKN3 αKi with respect to ATP (PKN3 [3]; uncompetitive with respect to ATP, 6 μM peptide, 7.8–250 μM ATP, 4 nM enzyme, 5 μM arachidonic acid): 1.3 µM |
| O=P(O)(O)O[C@@H]1[C@H](O)[C@H](O)[C@@H](OP(=O)(O)O)[C@H](OP(=O)(O)O)[C@H]1O [IP3, D-myo-inositol-1,3,5-triphosphate] | – | – | – | <2 fold | <2 fold | <2 fold | – |
| O=S(=O)(c1cccc2cnccc12)N1CCCNCC1 [Compound 12, HA-1077] | 0.8 ± 0.1 µM | – | – | – | – | – | – |
| phosphatidylinositol-3,4,5-triphosphate [PIP3] | – | – | – | 11 fold | <2 fold | <2 fold | EC50 (PKN1 [4]): 2 ± 1 µM; effect on PKN2 kinase activity (PKN2 [5]): not affected |
| CNCCNS(=O)(=O)c1cccc2cnccc12 [Compound 10, H-8] | 1.8 ± 0.3 µM | 1.8 ± 0.3 µM | 0.01 ± 0.002 µM | – | – | – | – |
| Nc1nc(Nc2ccc(S(N)(=O)=O)cc2)nn1C(=S)Nc1c(F)cccc1F [Compound 6, CDK1/2 inhibitor III] | 0.22 ± 0.02 µM | 0.012 ± 0.002 µM | 0.034 ± 0.002 µM | – | – | – | selectivity for PKN2 over PKN1 (PKN1, PKN2 and PKN3; from Ki values): 18 fold; selectivity for PKN2 over PKN3 (PKN1, PKN2 and PKN3; in words): only minimal selectivity; Isoform selectivity (PKN1, PKN2 and PKN3): PKN2/3 |
| CCCCCCCC(=O)OC[C@H](CO)OC(=O)CCCCCCC [DAG, 1,2-dioctanoyl-sn-glycerol] | – | – | – | <2 fold | <2 fold | <2 fold | – |
| phosphatidylinositol-4,5-bisphosphate [PIP2] | – | – | – | 14 fold | 7 fold | <2 fold | EC50 (PKN1 [4]): 5 ± 1 µM; effect on PKN2 kinase activity (PKN2 [5]): increased; EC50 (PKN2 [5]; lipid activator, saturating ATP (500 μM), 3 μM peptide, 5 nM PKN2): 2 ± 1 µM |
| CO[C@@H]1[C@H](N(C)C(=O)c2ccccc2)C[C@H]2O[C@]1(C)n1c3ccccc3c3c4c(c5c6ccccc6n2c5c31)C(=O)NC4 [Compound 1, PKC412] | – | – | < 0.0002 µM | – | – | – | – |
| CN(C)CCCn1cc(C2=C(c3c[nH]c4ccccc34)C(=O)NC2=O)c2ccccc21 [Compound 3, GF 109203X] | 0.079 ± 0.008 µM | 0.09 ± 0.02 µM | 2.3 ± 0.5 µM | – | – | – | selectivity for PKN1/2 over PKN3 (PKN1, PKN2 and PKN3; from Ki values): at least 25 fold; Isoform selectivity (PKN1, PKN2 and PKN3): PKN1/2 |
| O=C1Nc2ccc3ncsc3c2/C1=C/c1c[nH]cn1 [Compound 5, PKR inhibitor] | 0.41 ± 0.05 µM | 0.041 ± 0.007 µM | 0.24 ± 0.03 µM | – | – | – | Isoform selectivity (PKN1, PKN2 and PKN3): PKN2 |
| Nc1ncnc2c1ncn2[C@@H]1O[C@H](COP(=O)(O)OP(=O)(O)O)[C@@H](O)[C@H]1O [ADP] | – | – | – | – | – | – | Ki (PKN1 [1]; product inhibition, competitive with respect to ATP, 3 μM peptide, 31–1000 μM ATP, 1 nM enzyme, 100 μM arachidonic acid, read-out: PKN1 Ki): 53 ± 4 µM; Ki (PKN1 [1]; product inhibition, non-competitive with respect to peptide, 50 μM ATP, 0.3–10 μM peptide, 1 nM enzyme, 100 μM arachidonic acid, read-out: PKN1 Kiapp): 170 ± 14 µM; Ki (PKN2 [2]; product inhibition, competitive with respect to ATP, 2 μM peptide, 6–200 μM ATP, 2 nM enzyme, 100 μM arachidonic acid, read-out: PKN2 Ki): 26 ± 4 µM; Ki (PKN2 [2]; product inhibition, non-competitive with respect to peptide, 20 μM ATP, 0.3–10 μM peptide, 2 nM enzyme, 100 μM arachidonic acid, read-out: PKN2 Kiapp): 65 ± 5 µM; Ki (PKN3 [3]; product inhibition, competitive with respect to ATP, 5 μM peptide, 7.8–250 μM ATP, 4 nM enzyme, 5 μM arachidonic acid, read-out: PKN3 Ki): 69 ± 5 µM; Ki (PKN3 [3]; product inhibition, non-competitive with respect to peptide, 50 μM ATP, 0.9–30 μM peptide, 4 nM enzyme, 5 μM arachidonic acid, read-out: PKN3 Kiapp): 320 ± 12 µM |
| Cn1cc(C2=C(c3cn(CCCSC(=N)N)c4ccccc34)C(=O)NC2=O)c2ccccc21 [Compound 2, Ro 31-8220] | – | 0.017 ± 0.002 µM | 0.17 ± 0.01 µM | – | – | – | – |
| Phosphatidylserine | – | – | – | 15 fold | <2 fold | <2 fold | PKN1 Maximal fold activation (PKN1 [4]; listed as phosphatidylserine): 10–16 fold; EC50 (PKN1 [4]): 3 ± 1 µM; effect on PKN2 kinase activity (PKN2 [5]): not affected |
| CN(C(Cc1ccc(OS(=O)(=O)c2cccc3cnccc23)cc1)C(=O)N1CCN(c2ccccc2)CC1)S(=O)(=O)c1cccc2cnccc12 (stereo not shown) [Compound 11, KN62] | 2.9 ± 0.7 µM | > 5 µM | – | – | – | – | – |
